Results on two compounds are retold here after PMC7534258, “Novel temporin L antimicrobial peptides: promoting self-assembling by lipidic tags to tackle superbugs” (Journal of Enzyme Inhibition and Medicinal Chemistry, 2020).

Data set [1] deals with HaCaT cells. Conditions: 24 h, at 25.0 µM.
Method: The human immortalised keratinocytes HaCaT cells (AddexBio, San Diego, CA, USA) were cultured in Dulbecco’s modified Eagle’s medium containing 4 mM glutamine (DMEMg), supplemented with 10% heat-inactivated foetal bovine serum (FBS) and 0.1 mg/ml of penicillin and streptomycin, at 37 °C and 5% CO2, in 25 cm^2 or 75 cm^2 flasks[33].
The colorimetric MTT assay was carried out to measure cellular metabolic activity in terms of cell viability[33]^,[36]. Viable cells are able to reduce, by active mitochondrial dehydrogenases, the yellow salt MTT to purple formazan crystals. Briefly, 4 × 10^4 HaCaT cells, suspended in DMEMg supplemented with 2% FBS, were plated in each well of a 96-well microtiter plate. After overnight incubation, at 37 °C in a 5% CO2 atmosphere, keratinocytes were treated for 24 h with fresh serum-free medium containing the peptides 3B and C at concentrations ranging from 3.12 µM to 25 µM. Afterward, the culture medium was replaced with Hank’s buffer supplemented with 0.5 mg/ml MTT and the plate was incubated at 37 °C and 5% CO2 for 4 h. At the end, acidified isopropanol was employed to dissolve the formazan crystals. Cell viability was calculated, with respect to cells not treated with peptide, by absorbance measurements at 570 nm using a microplate reader (Infinite M200; Tecan, Salzburg, Austria)[33]. […]
For data set [2], the system named is S. aureus ATCC 25923. Put plainly: microbe, parasite or virus in culture. Particulars: ATCC 25923. How it is done:
Staphylococcus aureus ATCC 25923, Pseudomonas aeruginosa ATCC 27853 and Klebsiella pneumoniae ATCC BAA-1705 (carbapenemase producer) were obtained from the American Type Culture Collection (Rockville, MD).
Identification was performed by sub-culturing on Tryptic Soy Agar (TSA, Becton Dickinson) and by biochemical characterisation using the Vitek II system (Biomerieux). The antimicrobial susceptibility testing of all isolates was determined using Vitek II system and results were interpreted according to European Committee on Antimicrobial Susceptibility Testing (EUCAST version 9.0, 2019). P. aeruginosa was cultured in Brain Heart Infusion broth (BHI, OXOID), S. aureus and K. pneumoniae were cultured in Tryptic Soya broth (TSB, OXOID), under aerobic conditions at 37 °C, for 24 h on an orbital shaker at 200 rpm.
Minimal inhibitory concentrations (MIC) of all the peptides were determined in Mueller–Hinton medium by the broth microdilution assay, following the procedure already described[22]^,[34]. The compounds were added to bacterial suspension in each well yielding a final cell concentration of 1 × 10^6 CFU/ml and a final compound concentration ranging from 0.78 to 100 µM. Negative control wells were set to contain bacteria in Mueller–Hinton broth plus the amount of vehicle (ethanol) used to dilute each compound. Positive controls included vancomycin (2 µg/ml), tobramycin (4 µg/ml), gentamycin (4 µg/ml), and imipenem (8 µg/ml).

The nature of data set [3]: Critical aggregation concentration, Nile red fluorescence. Conditions: aqueous solution, pH 7, Nile red, 1–200 µM peptide. In kind it is physicochemical. How it is done: The solvatochromic fluorescent probe Nile red is widely used to determine the CAC of self-assembling peptides. […] Since Nile red is poorly soluble in water, there is a large preference to partition aggregates, which offer hydrophobic binding sites. Initially, 1 mM methanolic Nile red was prepared. Then, the methanolic Nile red was diluted with water in order to have a final concentration of 500 nM (solution A). The peptides 1B, 2B, 3B, C, were prepared as follows[39]: peptide stock solutions (0.4 mM) were prepared by dissolving the single peptides in water (1B, C) or tetrahydrofuran (3B, 2B) and sonicating for 15 min. Different aliquots were taken to prepare solutions of each peptide at different concentrations (1, 5, 10, 15, 20, 30, 50, 100 and 200 µM). Then, all solutions were diluted with water, sonicated for 15 min and freeze-dried. Finally, the peptide powders were dissolved with the right volume of solution A and allowed to stand in the dark place for 1 h before measurement. Emission spectra for each solution were measured by a Cary Eclipse Varian spectrometer. Spectra were taken between 570 and 700 nm at a slit width of 5 nm, using an excitation wavelength of 550 nm and a 10 nm slit width. The measurements were performed in triplicate. The data were analysed by plotting the maximum emission fluorescence corresponding wavelength (y) as a function of peptide concentration (x) and fitting with the sigmoidal Boltzmann equation: y=A1+A2/1+e^(x−x0/Δx)+A2 where the variables A1 and A2 correspond to the upper and lower limits of the sigmoid, x0 is the inflection point of the sigmoid and Δx is the parameter, which characterises the steepness of the function. The sigmoidal plot allows calculating the CAC value at x0.

The conditions of data set [4]: 90% human serum, 37 ± 1 °C, 200 µM. How it is done:
Human serum from human male AB plasma was acquired by Sigma-Aldrich-Merk. Water and MeCN were obtained from commercial suppliers and used without further purification. Analytical RP-UHPLC was performed on a Shimadzu Nexera equipped with a Phenomenex Kinetex column (C18, 4.6 mm x 150 mm, […]) and H2O (0.1% TFA) and MeCN (0.1% TFA) as eluents.
Serum stability was evaluated by modification of elsewhere described methods[37]^,[38]. In particular, the human serum was allocated into a 1.5 ml eppendorf tube and temperature equilibrated at 37 ± 1 °C for 15 min. Peptides 1B, and C were dissolved in sterile water to prepare a stock solution of 2 mM and then mixed with the human serum to make a final concentration of 0.2 mM (90% serum). The resulting reaction solution was incubated at 37 ± 1 °C. Aliquots of the reaction solutions were taken at known time intervals (0, 15, 45, 75, 90, 120 min), subjected to serum proteins precipitation by addition of MeCN (double volume respect to the aliquot). The cloudy reaction sample was cooled (4 °C) for 15 min and then spun at 13000 rpm for 10 min to pellet the precipitated serum proteins. The supernatant was then analysed by RP-UHPLC by using a linear elution gradient from 10 to 90% MeCN (0.1% TFA) in water (0.1% TFA) over 20 min. A flow rate of 1 ml/min was used, absorbance was detected at 220 nm, and the analysis was performed at room temperature.

Data set [5] concerns HaCaT cells. Conditions: at 25.0 µM, ref Merlino et al. [22]; cited from earlier work.

Molecules are shown by their SMILES. Entries after “also recorded” stand apart in the source; their conditions may differ. Where two headings read alike, the source gives them in different places. Where a SMILES comes first, the peptide text is derived from it. [ ]: non-standard residue; d: D form. The star is where a group is joined. Phe(4-NH2) = Nc1ccc(C[C@H](N)C(=O)O)cc1; Pentanoyl = CCCCC(=O)*

The compound `CCCCC(=O)Nc1ccc(C[C@H](N)C(=O)N[C@H](C(=O)N2CCC[C@H]2C(=O)N[C@@H](Cc2c[nH]c3ccccc23)C(=O)N[C@@H](Cc2ccccc2)C(=O)N[C@@H](CO)C(=O)N[C@@H](CCCCN)C(=O)N[C@@H](Cc2ccccc2)C(=O)N[C@H](CC(C)C)C(=O)N[C@H](CCCCN)C(=O)N[C@@H](CCCNC(=N)N)C(=O)N[C@H](C(=O)N[C@@H](CC(C)C)C(N)=O)[C@@H](C)CC)C(C)C)cc1` [C, H-Phe(4-NHCO(CH2)3CH3)-Val-Pro-Trp-Phe-Ser-Lys-Phe-DLeu-DLys-Arg-Ile- Leu-NH2] (H-[Phe(4-NH2)](Pentanoyl)VPWFSKF[dL][dK]RIL-NH2) had a cytotoxicity in data set [1] of 13.29%. In addition, in data set [2], the “Antimicrobial activity (MIC) S. aureus ATCC 25923” value stood at 6.25 µM. In addition, in data set [3], the “CAC (critical aggregation concentration)” value worked out at 39.5 µM. For the same compound, in data set [4], the “start of partial degradation in human serum” value worked out at 80 min and the “time peptide is stable in human serum” value is “up to 1 h”.
For `CC[C@H](C)[C@H](NC(=O)[C@H](CCCNC(=N)N)NC(=O)[C@@H](CCCCN)NC(=O)[C@@H](CC(C)C)NC(=O)[C@H](Cc1ccccc1)NC(=O)[C@H](CCCCN)NC(=O)[C@H](CO)NC(=O)[C@H](Cc1ccccc1)NC(=O)[C@H](Cc1c[nH]c2ccccc12)NC(=O)[C@@H]1CCCN1C(=O)[C@@H](NC(=O)[C@@H](N)Cc1ccccc1)C(C)C)C(=O)N[C@@H](CC(C)C)C(N)=O` [Compound 1B, H-Phe-Val-Pro-Trp-Phe-Ser-Lys-Phe-DLeu-DLys-Arg-Ile-Leu-NH2] (H-FVPWFSKF[dL][dK]RIL-NH2), the cytotoxicity in data set [5] is given as 28.22%. Also, the “Antimicrobial activity (MIC) S. aureus ATCC 25923” value in data set [2] was 6.25 µM. For the same compound, the “CAC (critical aggregation concentration)” value in data set [3] was “unable to aggregate under the range of concentrations investigated; also recorded: not aggregated at the concentration tested”. Also, the “proteolytic stability in human serum (in words)” value in data set [4] (within 120 min) is on record as “rapidly degraded”.
